# In ChEMBL document CHEMBL1125208, “Applications of neural networks in quantitative structure-activity relationships of dihydrofolate reductase inhibitors” (J Med Chem, 1991):
# Target: T1, Dihydrofolate reductase (Mus musculus) (UniProt P00375)
# T1 sequence (whole entry): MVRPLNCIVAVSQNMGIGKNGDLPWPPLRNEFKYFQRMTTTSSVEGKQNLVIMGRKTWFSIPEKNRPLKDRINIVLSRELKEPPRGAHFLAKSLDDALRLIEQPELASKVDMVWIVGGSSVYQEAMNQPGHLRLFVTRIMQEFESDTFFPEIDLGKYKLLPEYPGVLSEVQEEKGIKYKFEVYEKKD
# Experiment: Inhibition of dihydrofolate reductase from L1210 leukemia tumors
row,SMILES,Log 1/C
1,CC1(C)N=C(N)N=C(N)N1c1ccc(SCC(=O)Nc2cccc(S(=O)(=O)F)c2)c(Cl)c1,7.66
2,CC1(C)N=C(N)N=C(N)N1c1cccc(CCCCc2ccc(Cl)cc2Cl)c1,8.03
3,CC1(C)N=C(N)N=C(N)N1c1ccc(CCCCc2ccc(S(=O)(=O)F)cc2)cc1,7.7
4,CC(Oc1ccc(N2C(N)=NC(N)=NC2(C)C)cc1Cl)C(=O)Nc1ccc(S(=O)(=O)F)cc1 (configuration not stated),7.13
5,CC1(C)N=C(N)N=C(N)N1c1ccc(OCc2cccc(C(=O)Nc3ccc(S(=O)(=O)F)cc3)c2)c(Cl)c1,6.92
6,CC1(C)N=C(N)N=C(N)N1c1cccc(CCCCc2ccc(Cl)c(S(=O)(=O)F)c2)c1,8.37
7,CC1(C)N=C(N)N=C(N)N1c1ccc(OCc2ccc(C(=O)Nc3ccc(S(=O)(=O)F)cc3)cc2)c(Cl)c1,6.92
8,CC1(C)N=C(N)N=C(N)N1c1ccc(CCCCc2ccccc2S(=O)(=O)F)c(Cl)c1,7.77
9,CC1(C)N=C(N)N=C(N)N1c1ccc(OCc2ccc(C(=O)Nc3cccc(S(=O)(=O)F)c3)cc2)c(Cl)c1,7.41
10,CC1(C)N=C(N)N=C(N)N1c1cc(Cl)c(OCC(=O)Nc2ccc(S(=O)(=O)F)cc2)c(Cl)c1,7.74
11,CC1(C)N=C(N)N=C(N)N1c1ccc(CNC(=O)Nc2ccc(S(=O)(=O)F)cc2)c(Cl)c1,7.92
12,CC1(C)N=C(N)N=C(N)N1c1ccc(OCC(=O)Nc2cccc(S(=O)(=O)F)c2)c(Cl)c1,7.72
13,CN(C(=O)COc1ccc(N2C(N)=NC(N)=NC2(C)C)cc1Cl)c1ccc(S(=O)(=O)F)cc1,7.47
14,CC1(C)N=C(N)N=C(N)N1c1ccc(Cl)c(OCCCCOc2ccc(S(=O)(=O)F)cc2)c1,7.17
15,CC1(C)N=C(N)N=C(N)N1c1ccc(OCc2ccc(S(=O)(=O)F)cc2)c(Cl)c1,7.58
16,CC1(C)N=C(N)N=C(N)N1c1ccc(CCC(=O)Nc2ccc(S(=O)(=O)F)cc2)cc1,7.6
17,CC1(C)N=C(N)N=C(N)N1c1ccc(OCCCCC(=O)Nc2ccc(S(=O)(=O)F)cc2)c(Cl)c1,7.24
18,CC1(C)N=C(N)N=C(N)N1c1ccc(CCc2ccc(S(=O)(=O)F)cc2Cl)c(Cl)c1,8.33
19,CC1(C)N=C(N)N=C(N)N1c1ccc(OCC(=O)Nc2ccc(S(=O)(=O)F)cc2)c(Cl)c1,7.43
20,CC1(C)N=C(N)N=C(N)N1c1cccc(CCCCc2cc(Cl)ccc2S(=O)(=O)F)c1,7.96
21,CC1(C)N=C(N)N=C(N)N1c1cccc(OCC(=O)Nc2ccc(S(=O)(=O)F)cc2)c1,6.92
22,CC1(C)N=C(N)N=C(N)N1c1ccc(OCCOCCOc2ccc(S(=O)(=O)F)cc2)c(Cl)c1,7.14

row,SMILES,Log 1/C
1,CC1(C)N=C(N)N=C(N)N1c1ccc(OCc2cccc(Cl)c2S(=O)(=O)F)c(Cl)c1,7.42
2,COc1cccc(NC(=O)NCc2cccc(N3C(N)=NC(N)=NC3(C)C)c2)c1,8.02
3,CN(C)C(=O)c1cccc(NC(=O)NCc2cccc(N3C(N)=NC(N)=NC3(C)C)c2)c1,7.77
4,CC1(C)N=C(N)N=C(N)N1c1cccc(CCCCc2ccc(S(=O)(=O)F)c(Cl)c2)c1,7.7
5,CC1(C)N=C(N)N=C(N)N1c1ccc(CCc2cccc(Cl)c2S(=O)(=O)F)c(Cl)c1,8.3
6,CC1(C)N=C(N)N=C(N)N1c1ccc(CCCCc2ccc(Cl)c(S(=O)(=O)F)c2)c(Cl)c1,8.11
7,CC1(C)N=C(N)N=C(N)N1c1ccc(CC(C(=O)Nc2cccc(S(=O)(=O)F)c2)c2ccccc2)cc1 (configuration not stated),6.89
8,CC1(C)N=C(N)N=C(N)N1c1ccc(OCc2cccc(S(=O)(=O)F)c2)c(Cl)c1,7.72
9,CC1(C)N=C(N)N=C(N)N1c1ccc(OCCCCCCOc2ccc(S(=O)(=O)F)cc2)c(Cl)c1,7.46
10,CC1(C)N=C(N)N=C(N)N1c1ccc(OCc2cc(S(=O)(=O)F)ccc2Cl)c(Cl)c1,7.38
11,CC1(C)N=C(N)N=C(N)N1c1ccc(OCc2cccc(S(=O)(=O)F)c2Cl)c(Cl)c1,7.49
12,Cc1cc(NC(=O)NCCOc2ccc(N3C(N)=NC(N)=NC3(C)C)cc2Cl)ccc1S(=O)(=O)F,7.82
13,CC1(C)N=C(N)N=C(N)N1c1ccc(SCC(=O)Nc2ccc(S(=O)(=O)F)cc2)cc1,7.52
14,CC1(C)N=C(N)N=C(N)N1c1ccc(OCc2ccc(S(=O)(=O)F)cc2Cl)c(Cl)c1,7.44
15,CC1(C)N=C(N)N=C(N)N1c1ccc(OCCCCNC(=O)Nc2cccc(S(=O)(=O)F)c2)c(Cl)c1,7.7
16,CC1(C)N=C(N)N=C(N)N1c1ccc(Cl)c(CCc2ccc(S(=O)(=O)F)cc2)c1,5.82
17,CC1(C)N=C(N)N=C(N)N1c1ccc(CCCCc2cccc(Cl)c2S(=O)(=O)F)c(Cl)c1,8.2
18,CC1(C)N=C(N)N=C(N)N1c1ccc(CCc2ccc(Cl)c(S(=O)(=O)F)c2)c(Cl)c1,8.27
19,Cc1cc(NC(=O)NCCCOc2ccc(N3C(N)=NC(N)=NC3(C)C)cc2Cl)ccc1S(=O)(=O)F,8.06
20,CCN(CC)C(=O)NCc1cccc(N2C(N)=NC(N)=NC2(C)C)c1,6.11
21,CC1(C)N=C(N)N=C(N)N1c1ccc(OCc2ccc(Cl)c(S(=O)(=O)F)c2)c(Cl)c1,8
22,CC1(C)N=C(N)N=C(N)N1c1ccc(OCc2ccccc2C(=O)Nc2ccc(S(=O)(=O)F)cc2)c(Cl)c1,7.24

row,SMILES,Log 1/C
1,CC1(C)N=C(N)N=C(N)N1c1ccc(OCc2cc(Cl)ccc2S(=O)(=O)F)c(Cl)c1,7.27
2,CC1(C)N=C(N)N=C(N)N1c1cccc(OCCCOc2ccc(S(=O)(=O)F)cc2)c1,7.96
3,CC1(C)N=C(N)N=C(N)N1c1ccc(CCCCc2ccc(Cl)cc2Cl)cc1,7.92
4,CC1(C)N=C(N)N=C(N)N1c1ccc(CCC(=O)Nc2cccc(S(=O)(=O)F)c2)cc1,7.74
5,CC1(C)N=C(N)N=C(N)N1c1ccc(OCCCNC(=O)Nc2cccc(S(=O)(=O)F)c2)c(Cl)c1,7.28
6,CC1(C)N=C(N)N=C(N)N1c1ccc(OCc2ccccc2S(=O)(=O)F)c(Cl)c1,7.43
7,CC1(C)N=C(N)N=C(N)N1c1ccc(CCc2ccccc2)cc1,7.89
8,CC1(C)N=C(N)N=C(N)N1c1ccc(CNC(=O)Nc2ccc(S(=O)(=O)F)cc2)cc1,7.35
9,CC1(C)N=C(N)N=C(N)N1c1ccc(OCCCOc2ccc(S(=O)(=O)F)cc2)c(Cl)c1,7.07
10,CC1(C)N=C(N)N=C(N)N1c1ccc(Cl)c(OCCCOc2ccc(S(=O)(=O)F)cc2)c1,7.51
11,CC1(C)N=C(N)N=C(N)N1c1cccc(OCCCCOc2ccc(S(=O)(=O)F)cc2)c1,7.49
12,CC1(C)N=C(N)N=C(N)N1c1ccc(CCCCc2cc(Cl)ccc2S(=O)(=O)F)c(Cl)c1,7.06
13,CC1(C)N=C(N)N=C(N)N1c1ccc(OCCCNC(=O)Nc2ccc(S(=O)(=O)F)cc2)c(Cl)c1,7.68
14,CC1(C)N=C(N)N=C(N)N1c1cccc(CNC(=O)Nc2cccc(Cl)c2)c1,8.05
15,CC1(C)N=C(N)N=C(N)N1c1ccc(OCCCC(=O)Nc2ccc(S(=O)(=O)F)cc2)c(Cl)c1,7.15
16,CC1(C)N=C(N)N=C(N)N1c1ccc(CCCCc2ccccc2)c(Cl)c1,7.92
17,CC1(C)N=C(N)N=C(N)N1c1ccc(Cl)c(OCCCCCOc2ccc(S(=O)(=O)F)cc2)c1,6.72
18,CC1(C)N=C(N)N=C(N)N1c1ccc(OCc2c(Cl)cccc2S(=O)(=O)F)c(Cl)c1,7.72
19,CC1(C)N=C(N)N=C(N)N1c1cccc(CCCCc2cccc(S(=O)(=O)F)c2)c1,8.1
20,CC1(C)N=C(N)N=C(N)N1c1cccc(CNC(=O)Nc2cccc(C#N)c2)c1,8.19
21,CC1(C)N=C(N)N=C(N)N1c1cccc(CCc2ccc(S(=O)(=O)F)cc2)c1,8.1
22,CC1(C)N=C(N)N=C(N)N1c1ccc(OCCCC(=O)Nc2cccc(S(=O)(=O)F)c2)c(Cl)c1,7.17

row,SMILES,Log 1/C
1,CC1(C)N=C(N)N=C(N)N1c1ccc(Cl)c(OCCOc2ccc(S(=O)(=O)F)cc2)c1,7.27
2,CC1(C)N=C(N)N=C(N)N1c1ccc(CCCCCCc2ccc(S(=O)(=O)F)cc2)cc1,7.12
3,CC1(C)N=C(N)N=C(N)N1c1ccc(OCc2cccc(C(=O)Nc3cccc(S(=O)(=O)F)c3)c2)c(Cl)c1,7.24
4,CC1(C)N=C(N)N=C(N)N1c1ccc(Cl)c(CCCCc2ccc(S(=O)(=O)F)cc2)c1,6.77
5,CC1(C)N=C(N)N=C(N)N1c1ccc(OCCCNC(=O)c2ccc(S(=O)(=O)F)cc2)c(Cl)c1,7.34
6,Cc1cc(NC(=O)NCc2ccc(N3C(N)=NC(N)=NC3(C)C)cc2)ccc1S(=O)(=O)F,7.72
7,CC1(C)N=C(N)N=C(N)N1c1ccc(OCc2ccc(COc3ccc(S(=O)(=O)F)cc3)cc2)c(Cl)c1,6.82
8,CC1(C)N=C(N)N=C(N)N1c1cccc(CCCCc2ccc(S(=O)(=O)F)cc2)c1,8.1
9,CC1(C)N=C(N)N=C(N)N1c1ccc(OCCCCNC(=O)c2ccc(S(=O)(=O)F)cc2)c(Cl)c1,7.66
10,CC1(C)N=C(N)N=C(N)N1c1ccc(OCCCCCOc2ccc(S(=O)(=O)F)cc2)c(Cl)c1,7.57
11,CC1(C)N=C(N)N=C(N)N1c1ccc(SCC(=O)Nc2ccc(S(=O)(=O)F)cc2)c(Cl)c1,7.42
12,CC1(C)N=C(N)N=C(N)N1c1cccc(OCCOc2ccc(S(=O)(=O)F)cc2)c1,7.82
13,CC1(C)N=C(N)N=C(N)N1c1ccc(CCC(=O)Nc2ccc(S(=O)(=O)F)cc2)c(Cl)c1,7.62
14,CC1(C)N=C(N)N=C(N)N1c1cccc(CNC(=O)N2CCOCC2)c1,6.43
15,CC1(C)N=C(N)N=C(N)N1c1cccc(CNC(=O)Nc2cccc([N+](=O)[O-])c2)c1,8.1
16,CC1(C)N=C(N)N=C(N)N1c1ccc(OCc2ccc(Cl)cc2S(=O)(=O)F)c(Cl)c1,7.52
17,CC1(C)N=C(N)N=C(N)N1c1ccc(CCc2ccc(S(=O)(=O)F)c(Cl)c2)c(Cl)c1,7.85
18,Cc1cc(S(=O)(=O)F)ccc1COc1ccc(N2C(N)=NC(N)=NC2(C)C)cc1Cl,7.38
19,CC1(C)N=C(N)N=C(N)N1c1ccc(OCCCCOc2ccc(S(=O)(=O)F)cc2)c(Cl)c1,7.57
20,CC1(C)N=C(N)N=C(N)N1c1ccc(CCCCc2ccc(S(=O)(=O)F)c(Cl)c2)c(Cl)c1,7.7
21,CC1(C)N=C(N)N=C(N)N1c1ccc(OCc2ccc(S(=O)(=O)F)c(Cl)c2)c(Cl)c1,7.43
